Data taken from patent US20060188898A1, “Markers for roscovitine” (Cyclacel Limited, priority 2003, published 2006).

Assays:
HT29 colon cancer cells [1] = test: cDNA microarray analysis of mRNA expression in treated HT29 cells; assay type: cell-based
Source text: Total RNA was extracted from cell pellets using TriZol (Life Technologies) and mRNA was purified using the Qiagen Oligotex system. mRNA from control and treated cells was labelled with either Cy3 or Cy5 (NEN or Amersham) fluorescent dCTPs respectively, creating cDNA probes. cDNA microarray slides are made and used as described in Eisen, MB and Brown PO. (1999) DNA Arrays for Analysis of Gene Expression. Methods in Enzymology 303:179-205.
The cDNA probes were then hybridised to the cDNA microarray slides overnight and then washed and scanned using an Axon Labs GenePix 4000B scanner. The slides were verified using GenePix software and normalised prior to analysis in GeneSpring.
A 2 fold cut-off was used to assign significance to a change in mRNA expression. Therefore, any mRNA with a normalised ratio of medians less than 0.5 (FIGS. 1, 3, 5 and 7) or greater than 2 (FIGS. 2, 4, 6 and 8) is deemed significant.

CDK7 = CDK7 (Homo sapiens, UniProt P50613); conditions: cited from earlier work
Chain of CDK7 (P50613 whole entry, species assumed): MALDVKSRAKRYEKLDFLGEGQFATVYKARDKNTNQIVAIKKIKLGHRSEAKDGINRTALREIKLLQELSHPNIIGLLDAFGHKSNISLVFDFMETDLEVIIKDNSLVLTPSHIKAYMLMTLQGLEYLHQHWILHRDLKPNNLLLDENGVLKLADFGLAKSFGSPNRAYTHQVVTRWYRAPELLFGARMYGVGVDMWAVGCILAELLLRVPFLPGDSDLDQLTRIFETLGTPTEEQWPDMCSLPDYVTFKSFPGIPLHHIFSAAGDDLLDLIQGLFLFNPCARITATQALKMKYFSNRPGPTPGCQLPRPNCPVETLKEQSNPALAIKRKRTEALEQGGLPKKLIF
Chain of CDK7 (P51946 whole entry partner, species assumed): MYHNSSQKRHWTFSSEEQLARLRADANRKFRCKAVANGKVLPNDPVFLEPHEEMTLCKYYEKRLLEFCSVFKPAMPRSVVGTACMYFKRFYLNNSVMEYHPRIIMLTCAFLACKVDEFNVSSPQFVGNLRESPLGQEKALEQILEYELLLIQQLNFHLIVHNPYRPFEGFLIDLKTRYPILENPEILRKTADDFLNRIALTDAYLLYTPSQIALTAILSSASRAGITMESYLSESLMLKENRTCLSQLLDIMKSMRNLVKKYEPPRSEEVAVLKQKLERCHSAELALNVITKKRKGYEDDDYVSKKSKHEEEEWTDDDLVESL

CDK9 = CDK9 (Homo sapiens, UniProt P50750); conditions: cited from earlier work
Chain of CDK9 (P50750 whole entry, species assumed): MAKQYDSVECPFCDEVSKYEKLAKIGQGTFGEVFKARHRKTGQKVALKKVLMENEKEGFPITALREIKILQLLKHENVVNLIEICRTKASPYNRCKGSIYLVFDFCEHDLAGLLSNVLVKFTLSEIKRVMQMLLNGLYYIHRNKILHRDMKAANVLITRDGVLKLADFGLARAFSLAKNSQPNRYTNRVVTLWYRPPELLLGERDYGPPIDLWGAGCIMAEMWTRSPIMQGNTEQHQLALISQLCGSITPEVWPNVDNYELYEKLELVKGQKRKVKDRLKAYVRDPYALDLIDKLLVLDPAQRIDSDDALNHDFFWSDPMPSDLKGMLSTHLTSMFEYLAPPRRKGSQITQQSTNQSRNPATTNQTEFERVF
Chain of CDK9 (O60563 whole entry partner, species assumed): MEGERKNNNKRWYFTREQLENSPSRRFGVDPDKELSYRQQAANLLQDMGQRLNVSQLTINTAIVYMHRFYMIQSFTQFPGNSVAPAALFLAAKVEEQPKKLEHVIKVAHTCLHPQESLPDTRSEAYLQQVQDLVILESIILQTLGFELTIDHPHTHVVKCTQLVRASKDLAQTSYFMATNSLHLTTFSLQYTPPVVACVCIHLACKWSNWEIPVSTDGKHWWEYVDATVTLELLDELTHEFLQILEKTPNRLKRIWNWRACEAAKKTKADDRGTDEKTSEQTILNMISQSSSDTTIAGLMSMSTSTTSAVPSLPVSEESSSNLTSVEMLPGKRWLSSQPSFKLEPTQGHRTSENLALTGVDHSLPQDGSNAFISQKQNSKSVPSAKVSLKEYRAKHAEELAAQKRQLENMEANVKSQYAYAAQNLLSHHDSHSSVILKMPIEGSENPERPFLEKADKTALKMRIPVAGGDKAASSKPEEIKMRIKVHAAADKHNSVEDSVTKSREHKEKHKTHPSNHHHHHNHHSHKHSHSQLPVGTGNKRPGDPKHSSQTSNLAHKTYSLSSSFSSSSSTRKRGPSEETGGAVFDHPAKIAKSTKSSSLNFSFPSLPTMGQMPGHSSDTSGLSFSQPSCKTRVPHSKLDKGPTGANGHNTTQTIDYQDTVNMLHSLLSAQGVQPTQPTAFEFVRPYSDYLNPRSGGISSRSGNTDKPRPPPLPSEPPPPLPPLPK

cell cycle progression = conditions: cited from earlier work
HT29 colon cancer cells [2] = test: Western blotting of protein expression in treated HT29 cells
Method: HT29 colon cancer cells were seeded into T175 flasks at 3×10^6 cells per flask and allowed to attach for 48 h. […] A cell pellet was made for protein analysis and RNA analysis.
To harvest cells, the medium was removed and cells were incubated with 5 ml trypsin for 5 min at 37° C. to detach them from the plastic. The cells were then pelleted, washed in ice cold PBS and resuspended in ice cold lysis buffer containing 50 mM HEPES pH7.4, 250 mM NaCl, 0.1% NP40, 1 mM DTT, 1 mM EDTA, 1 mM NaF, 10 mM β-glycerophosphate, 0.1 mM sodium orthovanadate and 1 complete protease inhibitor cocktail tablet (Roche, East Sussex, UK) per 10 ml of lysis buffer for 30 minutes on ice. Lysates were centrifuged at approx. 18, 000×g for 10 minutes at 4° C. to remove cellular debris. The supernatant was stored at −80° C. prior to use. The protein concentration of lysates was determined using the BCA protein assay (Pierce, Rockford, USA). Proteins were separated by SDS-PAGE using Novex precast tris-glycine gels (Invitrogen, Groningen, The Netherlands) and transferred to Immobilon-P membranes (Millipore, Bedford, USA). Membranes were blocked for 1 hour in TBS™ 50 mM Tris pH7.5, 150 mM NaCl, 0.1% Tween 20 (Sigma, Dorset, UK) and 3% milk. Immunoblotting with primary antibodies diluted in TBS™ was performed at 4° C. overnight, followed by a 1 hour incubation with HRP-conjugated secondary antibodies at room temperature. Membranes were washed with ECL reagents and exposed to Hyperfilm (Amersham Pharmacia Biotech, Buckinghamshire, UK).

[3] = 50 μM CYC202, time course 4-48 h
[4] = 50 μM CYC202, time course 4-48 h, Western blot

Structure (SMILES): CC[C@H](CO)Nc1nc(NCc2ccccc2)c2ncn(C(C)C)c2n1 [CYC202, 2-(R)-(1-ethyl-2-hydroxyethylamino)-6-benzylamino-9-isopropylpurine]
- c-JUN mRNA expression (HT29 colon cancer cells [1]; 50 μM CYC202, 4-48 h): induced to significant levels from 4 h and is maintained at that level for the duration of the experiment
- EGR-1 mRNA expression (HT29 colon cancer cells [1]; 50 μM CYC202, 4-48 h, two fold cut off): induced from as early as 4 h and is maintained above the two fold cut off for the duration of the experiment
- aurora 1 mRNA expression (HT29 colon cancer cells [1]; [3]): markedly inhibited
- cyclin B2 mRNA expression (HT29 colon cancer cells [1]; [3]): markedly inhibited
- polo-like kinase 1 mRNA expression (HT29 colon cancer cells [1]; [3]): markedly inhibited
- inhibition of CDK7 (CDK7): inhibit
- inhibition of CDK9 (CDK9): inhibit
- effect on cell cycle progression (cell cycle progression): block cell cycle progression in late G1/early S and in M-phase
- c-JUN protein expression (HT29 colon cancer cells [2]; 50 μM CYC202, 4 h and 12 h, Western blot, phosphorylated, active form): induced at 4 h and 12 h
- EGR-1 protein expression (HT29 colon cancer cells [2]; 50 μM CYC202, Western blot): transiently induced at 12 h
- c-JUN protein expression (HT29 colon cancer cells [2]; 50 μM CYC202, after 24 h, Western blot): lost after 24 h
- aurora 1 protein expression (HT29 colon cancer cells [2]; [4]): markedly inhibited
- cyclin B2 protein expression (HT29 colon cancer cells [2]; [4]): markedly inhibited
- polo-like kinase 1 protein expression (HT29 colon cancer cells [2]; [4]): markedly inhibited
